From PubChem BioAssay AID1745844 (Carcinogenic Potency Database (CPDB), 2022)
The source made the active and inactive calls. How the calls were made is not given here.

Tested on: rodent lifetime carcinogenesis bioassay, tumor incidence TD50
Assay: carcinogenic potency in animals, long-term in vivo studies, CPDB compilation (AID 1745844)
Conditions: for carcinogen call: by gavage; for TD50: in feed, dosed 103 weeks

SMILES: N=C1C=CC(=C(c2ccc(N)cc2)c2ccc(N)cc2)C=C1
- carcinogen call (hamster, strain Syrian Golden, females, site: any site (literature study), lesion: several types, types named in the paper, dosed 84 weeks, study length 84 weeks): negative (inactive)
- carcinogen call (hamster, strain Syrian Golden, males, site: any site (literature study), lesion: several types, types named in the paper, dosed 84 weeks, study length 84 weeks): negative (inactive)
- TD50 (mouse, strain B6C3F1, females, site: Harderian gland, lesion: adenoma, NOS + carcinoma, NOS + cystadenoma, NOS, study length 105 weeks): 388 mg/kg/day
- TD50 (mouse, strain B6C3F1, females, site: Harderian gland, lesion: adenoma, NOS + cystadenoma, NOS, study length 105 weeks): 316 mg/kg/day
- TD50 (mouse, strain B6C3F1, females, site: Harderian gland, lesion: adenoma, study length 105 weeks): 548 mg/kg/day
- TD50 (mouse, strain B6C3F1, females, site: adrenal gland + liver, lesion: pheochromocytoma + pheochromocytoma, malignant + hepatocellular carcinoma, study length 105 weeks): 28.8 mg/kg/day
- TD50 (mouse, strain B6C3F1, females, site: adrenal gland, lesion: pheochromocytoma + pheochromocytoma, malignant, study length 105 weeks): 90.6 mg/kg/day
- TD50 (mouse, strain B6C3F1, females, site: all sites, lesion: malignant lymphoma, histiocytic type + malignant lymphoma, mixed type + malignant lymphoma, lymphocytic type + malignant lymph, study length 105 weeks): 62.2 mg/kg/day
- TD50 (mouse, strain B6C3F1, females, site: all sites, lesion: malignant lymphoma, histiocytic type, study length 105 weeks): 380 mg/kg/day
- TD50 (mouse, strain B6C3F1, females, site: all sites, lesion: malignant lymphoma, lymphocytic type, study length 105 weeks): 151 mg/kg/day
- TD50 (mouse, strain B6C3F1, females, site: any site (literature study), lesion: several types, types named in the paper, study length 105 weeks): 23.4 mg/kg/day
- TD50 (mouse, strain B6C3F1, females, site: liver, lesion: hepatocellular adenoma + hepatocellular carcinoma + neoplastic nodule, study length 105 weeks): 20.3 mg/kg/day
- TD50 (mouse, strain B6C3F1, females, site: liver, lesion: hepatocellular adenoma + hepatocellular carcinoma, study length 105 weeks): 20.3 mg/kg/day
- TD50 (mouse, strain B6C3F1, females, site: liver, lesion: hepatocellular adenoma, study length 105 weeks): 35.9 mg/kg/day
- TD50 (mouse, strain B6C3F1, females, site: liver, lesion: hepatocellular carcinoma, study length 105 weeks): 32.3 mg/kg/day
- TD50 (mouse, strain B6C3F1, females, site: lung, lesion: alveolar/bronchiolar adenoma + alveolar/bronchiolar carcinoma, study length 105 weeks): 302 mg/kg/day
- TD50 (mouse, strain B6C3F1, females, site: lung, lesion: alveolar/bronchiolar adenoma, study length 105 weeks): 326 mg/kg/day
- TD50 (mouse, strain B6C3F1, males, site: all sites, lesion: malignant lymphoma, mixed type, study length 104 weeks): 610 mg/kg/day
- TD50 (mouse, strain B6C3F1, males, site: any site (literature study), lesion: several types, types named in the paper, study length 104 weeks): 222 mg/kg/day
- TD50 (mouse, strain B6C3F1, males, site: liver, lesion: hepatocellular adenoma + hepatocellular carcinoma + neoplastic nodule, study length 104 weeks): 116 mg/kg/day
- TD50 (mouse, strain B6C3F1, males, site: liver, lesion: hepatocellular adenoma + hepatocellular carcinoma, study length 104 weeks): 116 mg/kg/day
- TD50 (mouse, strain B6C3F1, males, site: liver, lesion: hepatocellular carcinoma, study length 104 weeks): 127 mg/kg/day
- TD50 (rat, strain Fischer 344, females, site: Zymbal's gland, lesion: carcinoma, NOS, study length 104 weeks): 190 mg/kg/day
- TD50 (rat, strain Fischer 344, females, site: any site (literature study), lesion: several types, types named in the paper, study length 104 weeks): 17.8 mg/kg/day
- TD50 (rat, strain Fischer 344, females, site: liver, lesion: hepatocellular adenoma + hepatocellular carcinoma + neoplastic nodule, study length 104 weeks): 189 mg/kg/day
- TD50 (rat, strain Fischer 344, females, site: liver, lesion: hepatocellular carcinoma + neoplastic nodule, study length 104 weeks): 189 mg/kg/day
- TD50 (rat, strain Fischer 344, females, site: mammary gland, lesion: adenocarcinoma, NOS + adenoma, NOS + fibroadenoma, study length 104 weeks): 25.4 mg/kg/day
- TD50 (rat, strain Fischer 344, females, site: mammary gland, lesion: adenocarcinoma, NOS + adenoma, NOS, study length 104 weeks): 156 mg/kg/day
- TD50 (rat, strain Fischer 344, females, site: mammary gland, lesion: adenocarcinoma, NOS, study length 104 weeks): 232 mg/kg/day
- TD50 (rat, strain Fischer 344, females, site: mammary gland, lesion: fibroadenoma, study length 104 weeks): 27.9 mg/kg/day
- TD50 (rat, strain Fischer 344, females, site: subcutaneous tissue + thyroid gland + Zymbal's gland, lesion: fibroma + follicular-cell adenoma + follicular-cell carcinoma + carcinoma, NOS, study length 104 weeks): 32.2 mg/kg/day
- TD50 (rat, strain Fischer 344, females, site: subcutaneous tissue, lesion: fibroma, study length 104 weeks): 44.5 mg/kg/day
- TD50 (rat, strain Fischer 344, females, site: subcutaneous tissue, lesion: fibrosarcoma + fibroma + sarcoma, NOS, study length 104 weeks): 40.9 mg/kg/day
- TD50 (rat, strain Fischer 344, females, site: subcutaneous tissue, lesion: fibrosarcoma + fibroma, study length 104 weeks): 42.8 mg/kg/day
- TD50 (rat, strain Fischer 344, females, site: thyroid gland, lesion: follicular-cell adenoma + follicular-cell carcinoma, study length 104 weeks): 154 mg/kg/day
- TD50 (rat, strain Fischer 344, females, site: thyroid gland, lesion: follicular-cell adenoma, study length 104 weeks): 318 mg/kg/day
- TD50 (rat, strain Fischer 344, females, site: uterus, lesion: endometrial stromal sarcoma, study length 104 weeks): 133 mg/kg/day
- TD50 (rat, strain Fischer 344, males, site: Zymbal's gland, lesion: carcinoma, NOS, study length 104 weeks): 124 mg/kg/day
- TD50 (rat, strain Fischer 344, males, site: any site (literature study), lesion: several types, types named in the paper, study length 104 weeks): 15.7 mg/kg/day
- TD50 (rat, strain Fischer 344, males, site: body cavities + multiple sites + multiple organs + tunica vaginalis, lesion: mesothelioma, NOS + mesothelioma, malignant, study length 104 weeks): 184 mg/kg/day
- TD50 (rat, strain Fischer 344, males, site: liver + skin + subcutaneous tissue + thyroid gland + Zymbal's gland, lesion: hepatocellular carcinoma + sebaceous adenoma + squamous-cell carcinoma + trichoepithelioma + fibroma + follicular-cell adenoma + fol, study length 104 weeks): 21.2 mg/kg/day
- TD50 (rat, strain Fischer 344, males, site: liver, lesion: bile duct adenoma + bile duct carcinoma, study length 104 weeks): 557 mg/kg/day
- TD50 (rat, strain Fischer 344, males, site: liver, lesion: hepatocellular adenoma + hepatocellular carcinoma + neoplastic nodule, study length 104 weeks): 41.5 mg/kg/day
- TD50 (rat, strain Fischer 344, males, site: liver, lesion: hepatocellular carcinoma + neoplastic nodule, study length 104 weeks): 41.5 mg/kg/day
- TD50 (rat, strain Fischer 344, males, site: liver, lesion: hepatocellular carcinoma, study length 104 weeks): 140 mg/kg/day
- TD50 (rat, strain Fischer 344, males, site: liver, lesion: neoplastic nodule, study length 104 weeks): 62.2 mg/kg/day
- TD50 (rat, strain Fischer 344, males, site: lung, lesion: alveolar/bronchiolar adenoma + alveolar/bronchiolar carcinoma, study length 104 weeks): 254 mg/kg/day
- TD50 (rat, strain Fischer 344, males, site: lung, lesion: alveolar/bronchiolar adenoma, study length 104 weeks): 281 mg/kg/day
- TD50 (rat, strain Fischer 344, males, site: pancreatic islets, lesion: islet-cell adenoma + islet-cell carcinoma, study length 104 weeks): 152 mg/kg/day
- TD50 (rat, strain Fischer 344, males, site: pancreatic islets, lesion: islet-cell carcinoma, study length 104 weeks): 252 mg/kg/day
- TD50 (rat, strain Fischer 344, males, site: skin, lesion: basal-cell carcinoma, study length 104 weeks): 385 mg/kg/day
- TD50 (rat, strain Fischer 344, males, site: skin, lesion: sebaceous adenoma, study length 104 weeks): 424 mg/kg/day
- TD50 (rat, strain Fischer 344, males, site: skin, lesion: squamous-cell carcinoma + squamous-cell papilloma, study length 104 weeks): 93.8 mg/kg/day
- TD50 (rat, strain Fischer 344, males, site: skin, lesion: squamous-cell carcinoma, study length 104 weeks): 130 mg/kg/day
- TD50 (rat, strain Fischer 344, males, site: skin, lesion: trichoepithelioma, study length 104 weeks): 221 mg/kg/day
- TD50 (rat, strain Fischer 344, males, site: subcutaneous tissue, lesion: fibroma, study length 104 weeks): 35.3 mg/kg/day
- TD50 (rat, strain Fischer 344, males, site: subcutaneous tissue, lesion: fibrosarcoma + fibroma + sarcoma, NOS, study length 104 weeks): 33.4 mg/kg/day
- TD50 (rat, strain Fischer 344, males, site: subcutaneous tissue, lesion: fibrosarcoma + fibroma, study length 104 weeks): 33 mg/kg/day
- TD50 (rat, strain Fischer 344, males, site: testis, lesion: interstitial-cell tumor, study length 104 weeks): 15.6 mg/kg/day
- TD50 (rat, strain Fischer 344, males, site: thyroid gland, lesion: follicular-cell adenoma + follicular-cell carcinoma, study length 104 weeks): 57 mg/kg/day
- TD50 (rat, strain Fischer 344, males, site: thyroid gland, lesion: follicular-cell adenoma, study length 104 weeks): 176 mg/kg/day
- TD50 (rat, strain Fischer 344, males, site: thyroid gland, lesion: follicular-cell carcinoma, study length 104 weeks): 73.9 mg/kg/day
- carcinogen call (rat, strain Sprague-Dawley, females, site: any site (literature study), lesion: several types, types named in the paper, dosed 127 weeks, study length 127 weeks): negative (inactive)
- carcinogen call (rat, strain Sprague-Dawley, males, site: any site (literature study), lesion: several types, types named in the paper, dosed 124 weeks, study length 124 weeks): negative (inactive)
